In patent publication US20220362386A1, “LIQUID COMPOSITIONS COMPRISING A LEVODOPA AMINO ACID CONJUGATE AND USES THEREOF” (NeuroDerm, Ltd., priority 2019, published 2022):
Counter-ions that a name gives are not always drawn. Like-named read-outs stand apart in the source and are kept apart here. Non-standard residues stand in square brackets, D forms with d. Residues, ends and D or L forms follow the SMILES beside them. Dopa = N[C@@H](Cc1ccc(O)c(O)c1)C(=O)O

Key:
[1] = In-vitro metabolism of LDAA compounds using liver microsomes; assay type: in vitro ADME, human; details: for half-life at 0.1 μM / microsomal CLint at 0.1 μM: both sexes, human, pooled human liver microsomes; for half-life at 0.1 μM: pH 7.4, 1.0E−07M, 0.1 mg/mL microsomal protein; for microsomal CLint at 0.1 μM: pH 7.4, calculated from the half-life; for microsomal CLint at 0.1 μM / % Compound Remaining 1st / % Compound Remaining 2nd / % Compound Remaining Mean: 1.0E−07M
Procedure: The stability of test compounds in pooled human liver microsomes was determined on 96-well plates, wherein the test compounds were quantified at five time points by HPLC-MS/MS analysis. The assay matrix included mixed gender and a pool of 50 human liver microsomes, wherein the final microsomal protein concentration was 0.1 mg/mL. The test concentration was 0.1 μM with 0.01% DMSO, 0.25% acetonitrile and 0.25% methanol.
Each test compound was pre-incubated for five minutes with pooled liver microsomes in phosphate buffer (pH 7.4) in a 37° C. shaking water-bath. The reaction was initiated by adding a nicotinamide adenine dinucleotide phosphate (NADPH)-generating system and incubating for 0, 15, 30, 45, and 60 min. The reaction was stopped by transferring the incubation mixture to acetonitrile/methanol. Samples were then mixed and centrifuged, wherein the supernatants were used for HPLC-MS/MS analysis.
In each assay the four reference compounds propranolol, imipramine, verapamil and terfenadine were tested, wherein the propranolol and the imipramine are known to be relatively stable, while the verapamil and the terfenadine are known to be readily metabolized in human liver microsomes.
All samples were analyzed by HPLC-MS/MS using selected reaction monitoring. The HPLC system consisted of a binary LC pump with autosampler, a C-18 column, and a gradient. The conditions were adjusted when necessary.
Peak areas corresponding to the test compound were recorded. The amount of each compound remaining was calculated by comparing the peak area at each time point to time zero. The half-life is calculated from the slope of the initial linear range of the logarithmic curve of compound remaining (%) vs. time, assuming first order kinetics. In addition, the intrinsic clearance (Clint) was calculated from the half-life using the following equation:
Clint(μL/min/mg protein)=0.693/(t1/2×protein concentration)
The results of the in-vitro human liver microsome metabolism tests of various LDAA compounds (10^−7M), in their TFA salt forms, are provided in FIG. 1 and in Table 17, which presents the % of the compound remaining at times 0, 15, 30, 45 and 60 minutes, two half-life measurements and the Clint, calculated as detailed above.

in vitro = details: human
Procedure: Caco-2 cells are human intestinal epithelial cells derived from a colorectal adenocarcinoma.
The assays are performed in both the apical to basolateral (A-B) and the B-A direction. The test compound is prepared at 10 μM in HBSS-HEPES (pH 7.4) with a final DMSO concentration of 1%. The working solution is centrifuged, and the supernatant is added to the donor side. The assay plate is incubated at 37° C. with gentle shaking for 60 min or 40 min for the A-B or B-A assay, respectively. For Pgp substrate assessment, the assays are run with and without 100 μM verapamil on both the A and B sides. For BCRP substrate assessment, the assays are run with and without 10 μM Ko143 on both the A and B sides. For MRP2 substrate assessment, the assays are run with and without 100 μM MK571 on both the A and B sides. Samples are aliquoted from the donor side at time zero and the end point, and from the receiver side at the end point.
Propranolol (highly permeable), labetalol (moderately permeable), ranitidine (poorly permeable), and colchicine (P-glycoprotein substrate), estrone-3-sulfate (BCRP substrate), or CDCF (MRP2 substrate) are included in each assay.
Samples are analyzed by HPLC-MS/MS using selected reaction monitoring. The HPLC system consists of a binary LC pump with an autosampler, a C-18 column, and a gradient. Conditions may be adjusted when necessary.
Fluorescein permeability is assessed in the A-B direction at pH 7.4 on both sides after the permeability assay with the test compound. The cell monolayer with a fluorescein permeability of less than 1.5×10−6 cm/s is considered intact.
The apparent permeability coefficient (Papp) of the test compound and its recovery are calculated as follows: […]
A is the surface area of the cell monolayer (0.11 cm^2). C is concentration of the test compound, expressed as peak area. D denotes donor and R is receiver. 0, mid, and end denote time zero, mid-point, and end of the incubation. Δt is the incubation time. V is the volume of the donor or receiver.
The permeability capabilities of the several LDAA compounds, in their TFA salt form, were determined using the Caco-2 B-A method.

human plasma = test: Protein binding, solid phase extraction (SPE) method; assay type: in vitro ADME; details: 1.0E−05M; SPE sample preparation
Procedure: (§1) A solid phase extraction (SPE) method was used to prepare samples for several compounds in the plasma protein binding assay. The following SPE protocols were followed:
(§2) Sorbent: Waters Oasis MCX 96—well MicroElution Plate—Cat #186001830BA Sample: 200 μL of plasma spiked at 10 μM with test compound. Sample was diluted 1:1 with 4% phosphoric acid in water and mixed for 15 minutes 1) Place Oasis plate on vacuum manifold and set vacuum to 5″ Hg; 2) Condition with 200 μL methanol; 3) Equilibrate with 200 μL water; 4) Load dilute plasma sample; 5) Wash with 200 μL 2% formic acid in water; 6) Wash with 400 μL methanol; and 7) Elute with 100 μL 5% NH4OH in methanol.
as §2, with “MAX 96-well” for “MCX 96—well”, “plate—Cat #186001829” for “Plate—Cat #186001830BA”, “5% NH4OH” for “2% formic acid”, “2% formic acid” for “5% NH4OH”

[2] = as above; assay type: in vitro ADME, human; details: human, human plasma, 1.0E−05M, SPE sample preparation
Procedure: as §1, §2
as §2, with “MAX 96-well” for “MCX 96—well”, “plate—Cat #186001829” for “Plate—Cat #186001830BA”, “5% NH4OH” for “2% formic acid”, “2% formic acid” for “5% NH4OH”

[3] = read-out: Half-Life (minute) 1st
[4] = read-out: Half-Life (minute) 2nd
[5] = read-out: Half-Life (minute) Mean
[6] = Caco-2, pH 7.4, Percent Recovery 1st
[7] = Caco-2, pH 7.4, Percent Recovery 2nd
[8] = Caco-2, pH 7.4, Percent Recovery Mean
[9] = Caco-2, pH 7.4, Permeability 1st
[10] = Caco-2, pH 7.4, Permeability 2nd
[11] = Caco-2, pH 7.4, Permeability Mean

half-life at 0.1 μM [1, 3] | half-life at 0.1 μM [1, 4] | half-life at 0.1 μM [1, 5] | microsomal CLint at 0.1 μM [1] | % Compound Remaining 1st ([1]; incubation time 0 minutes) | % Compound Remaining 2nd ([1]; incubation time 0 minutes) | % Compound Remaining Mean ([1]; incubation time 0 minutes) | % Compound Remaining 1st ([1]; incubation time 15 minutes) | % Compound Remaining 2nd ([1]; incubation time 15 minutes) | % Compound Remaining Mean ([1]; incubation time 15 minutes) | % Compound Remaining 1st ([1]; incubation time 30 minutes) | % Compound Remaining 2nd ([1]; incubation time 30 minutes) | % Compound Remaining Mean ([1]; incubation time 30 minutes) | % Compound Remaining 1st ([1]; incubation time 45 minutes) | % Compound Remaining 2nd ([1]; incubation time 45 minutes) | % Compound Remaining Mean ([1]; incubation time 45 minutes) | % Compound Remaining 1st ([1]; incubation time 60 minutes) | % Compound Remaining 2nd ([1]; incubation time 60 minutes) | % Compound Remaining Mean ([1]; incubation time 60 minutes) | recovery at 40 min, 10 μM (in vitro; [6]) | SMILES | further results
139 min | 87.3 min | > 60 min | < 116 µL/min/mg | 100% | 100% | 100% | {129.4% | 110.4% | 110% | {125.6% | 77.6% | 78% | 79.7% | 77.9% | 79% | 74.2% | 65.6% | 70% | 80% | N[C@@H](CSC[C@@H](NC(=O)[C@@H](N)Cc1ccc(O)c(O)c1)C(=O)O)C(=O)O (single isomer, unassigned; peak 1) [LD-LA1 TFA salt, Levodopa Lanthionine Peak 1 TFA Salt] | recovery at 40 min, 10 μM (in vitro; [7]): 86%; recovery at 40 min, 10 μM (in vitro; [8]): 83%; Papp B→A at 40 min, 10 μM (in vitro; [9]): 0.28 ×10⁻⁶ cm/s; Papp B→A at 40 min, 10 μM (in vitro; [10]): 0.22 ×10⁻⁶ cm/s; Papp B→A at 40 min, 10 μM (in vitro; [11]): 0.3 ×10⁻⁶ cm/s
74.4 min | 77.3 min | > 60 min | < 116 µL/min/mg | 100% | 100% | 100% | 92.8% | 96.4% | 95% | 79.9% | 88.6% | 84% | 66.1% | 59.7% | 63% | 58.9% | 64.9% | 62% | 85% | NC(=O)C[C@H](NC(=O)[C@@H](N)Cc1ccc(O)c(O)c1)C(=O)O [LD-Asn TFA salt, Levodopa Asparagine TFA Salt] (H-[Dopa]-Asn-OH) | recovery at 40 min, 10 μM (in vitro; [7]): 84%; recovery at 40 min, 10 μM (in vitro; [8]): 85%; Papp B→A at 40 min, 10 μM (in vitro; [9]): 0.42 ×10⁻⁶ cm/s; Papp B→A at 40 min, 10 μM (in vitro; [10]): 0.39 ×10⁻⁶ cm/s; Papp B→A at 40 min, 10 μM (in vitro; [11]): 0.4 ×10⁻⁶ cm/s
– | – | – | – | – | – | – | – | – | – | – | – | – | – | – | – | – | – | – | – | N[C@@H](Cc1ccc(O)c(O)c1)C(=O)N[C@@H](CC(=O)O)C(=O)O [LD-Asp TFA salt, Levodopa Aspartic Acid] (H-[Dopa]-Asp-OH) | % Protein Bound 1st (human plasma): 47.8%; % Protein Bound 2nd (human plasma): 34.1%; % Protein Bound Mean (human plasma): 41%; recovery at 10 μM ([2]; read-out: % Recovery 1st): 55%; recovery at 10 μM ([2]; read-out: % Recovery 2nd): 64%; recovery at 10 μM ([2]; read-out: % Recovery Mean): 60%
155 min | 158 min | > 60 min | < 116 µL/min/mg | 100% | 100% | 100% | 103.4% | {121.2% | 103% | 68.2% | {139.0% | 68% | 81.8% | 94.1% | 88% | 80.4% | 72.8% | 77% | 81% | NC(=O)CC[C@H](NC(=O)[C@@H](N)Cc1ccc(O)c(O)c1)C(=O)O [LD-Gln TFA salt, Levodopa Glutamine TFA Salt] (H-[Dopa]-Gln-OH) | recovery at 40 min, 10 μM (in vitro; [7]): 92%; recovery at 40 min, 10 μM (in vitro; [8]): 87%; Papp B→A at 40 min, 10 μM (in vitro; [9]): 1.01 ×10⁻⁶ cm/s; Papp B→A at 40 min, 10 μM (in vitro; [10]): 0.79 ×10⁻⁶ cm/s; Papp B→A at 40 min, 10 μM (in vitro; [11]): 0.9 ×10⁻⁶ cm/s
64 min | 61.4 min | > 60 min | < 116 µL/min/mg | 100% | 100% | 100% | 108.6% | {96.6} % | 109% | 115.2% | 92.2% | 104% | 70.5% | 63.1% | 67% | 55.1% | 51.6% | 53% | 71% | N[C@@H](Cc1ccc(O)c(O)c1)C(=O)N[C@@H](Cc1c[nH]c2ccccc12)C(=O)O [LD-Trp TFA salt, Levodopa Tryptophan] (H-[Dopa]-Trp-OH) | recovery at 40 min, 10 μM (in vitro; [7]): 82%; recovery at 40 min, 10 μM (in vitro; [8]): 77%; Papp B→A at 40 min, 10 μM (in vitro; [9]): 0.01 ×10⁻⁶ cm/s; Papp B→A at 40 min, 10 μM (in vitro; [10]): 0.01 ×10⁻⁶ cm/s; Papp B→A at 40 min, 10 μM (in vitro; [11]): < 0.01 ×10⁻⁶ cm/s
